Test results from US12662479B2 (Foghorn Therapeutics Inc., priority 2020, dated 2026).

Key:
HiBit-BRM fusion protein = biological target: T1, HiBit-BRM fusion protein (Homo sapiens, UniProt P51531); test: HiBiT-BRM cell-based degradation assay (Nano-Glo HiBiT Lytic Detection, 24 h); settings: HeLa cells expressing HiBiT-BRM; for DC50: read-out: BRM HiBit Degradation IC50; for BRM HiBit Degradation Maximum measured: top dose 30 μM
T1 construct: expressed in transfected cells
Procedure, shortened: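 Residual HiBiT-BRM in a stable HeLa line was measured by Nano-Glo lytic luminescence after 24 h compound exposure (top final dose 30 μM, 3-fold, 10 points, duplicate). Values are % degradation, scaled between DMSO-treated cells and cells given 2 μM of a known BRM/BRG1 degrader.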

[1] = biological target: T2, HiBit-BRG1 fusion protein (Homo sapiens, UniProt P51532); test: HiBiT-BRG1 cell-based degradation assay (Nano-Glo HiBiT Lytic Detection, 24 h); settings: HeLa cells expressing HiBit-BRG1 and LgBit; for DC50: read-out: BRG1 HiBit Degradation IC50; for Dmax: HeLa, top dose 30 μM, read-out: BRG1 HiBit Degradation Maximum measured
T2 construct: expressed in transfected cells
T2 sequence (P51532 whole entry, the tested form may be a part): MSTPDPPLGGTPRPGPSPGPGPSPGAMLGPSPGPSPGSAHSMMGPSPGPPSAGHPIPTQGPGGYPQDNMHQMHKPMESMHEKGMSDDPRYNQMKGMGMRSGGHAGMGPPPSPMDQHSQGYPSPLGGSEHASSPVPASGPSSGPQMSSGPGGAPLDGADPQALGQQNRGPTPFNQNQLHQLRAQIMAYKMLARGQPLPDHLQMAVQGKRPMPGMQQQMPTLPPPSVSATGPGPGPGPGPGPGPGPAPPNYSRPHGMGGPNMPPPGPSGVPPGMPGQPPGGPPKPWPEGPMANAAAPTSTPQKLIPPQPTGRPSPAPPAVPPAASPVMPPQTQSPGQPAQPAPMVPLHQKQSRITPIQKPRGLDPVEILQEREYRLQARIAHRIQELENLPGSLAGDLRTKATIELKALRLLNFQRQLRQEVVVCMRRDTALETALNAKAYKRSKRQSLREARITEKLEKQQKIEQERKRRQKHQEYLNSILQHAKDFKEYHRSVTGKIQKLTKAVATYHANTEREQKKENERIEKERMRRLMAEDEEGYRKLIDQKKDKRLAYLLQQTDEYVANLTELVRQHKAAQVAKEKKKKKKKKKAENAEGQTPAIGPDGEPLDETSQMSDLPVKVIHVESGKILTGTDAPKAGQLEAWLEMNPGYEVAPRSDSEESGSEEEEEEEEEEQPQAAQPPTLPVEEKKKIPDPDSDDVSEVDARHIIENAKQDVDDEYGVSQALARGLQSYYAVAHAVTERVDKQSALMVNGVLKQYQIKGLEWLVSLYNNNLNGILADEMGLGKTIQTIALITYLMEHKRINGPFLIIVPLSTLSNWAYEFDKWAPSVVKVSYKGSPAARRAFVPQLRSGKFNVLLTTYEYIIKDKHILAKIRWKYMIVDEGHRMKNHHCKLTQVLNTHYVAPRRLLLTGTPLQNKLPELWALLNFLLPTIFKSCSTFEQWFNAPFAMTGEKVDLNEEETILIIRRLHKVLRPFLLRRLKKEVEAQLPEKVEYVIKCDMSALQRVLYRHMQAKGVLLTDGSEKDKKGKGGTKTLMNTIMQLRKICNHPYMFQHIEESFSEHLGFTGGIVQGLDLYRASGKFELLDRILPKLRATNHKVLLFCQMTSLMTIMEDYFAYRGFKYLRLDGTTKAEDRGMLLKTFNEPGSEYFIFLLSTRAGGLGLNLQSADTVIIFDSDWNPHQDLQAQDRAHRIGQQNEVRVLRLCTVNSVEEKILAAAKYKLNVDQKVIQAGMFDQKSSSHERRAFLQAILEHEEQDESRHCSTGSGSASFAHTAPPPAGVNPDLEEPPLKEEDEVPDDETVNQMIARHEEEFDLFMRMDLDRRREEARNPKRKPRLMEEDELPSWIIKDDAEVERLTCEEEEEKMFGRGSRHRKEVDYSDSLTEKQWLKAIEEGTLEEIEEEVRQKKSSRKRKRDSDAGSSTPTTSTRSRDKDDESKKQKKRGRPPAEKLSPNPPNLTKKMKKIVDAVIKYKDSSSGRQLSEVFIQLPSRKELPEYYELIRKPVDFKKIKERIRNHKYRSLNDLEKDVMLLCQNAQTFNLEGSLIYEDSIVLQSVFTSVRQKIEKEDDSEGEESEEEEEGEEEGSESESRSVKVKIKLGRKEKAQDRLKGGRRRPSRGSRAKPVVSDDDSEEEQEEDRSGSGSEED
Procedure, shortened: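 Degradation is scaled from DMSO-treated cells (0%) to cells given 2 μM of a known BRM/BRG1 degrader (100%). HeLa cells stably carrying HiBiT-BRG1 plus LgBiT (5000/well) were lysed with Nano-Glo HiBiT detection reagent, shaken 10 min at RT, and luminescence read.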

T1 sequence (P51531 whole entry, the tested form may be a part): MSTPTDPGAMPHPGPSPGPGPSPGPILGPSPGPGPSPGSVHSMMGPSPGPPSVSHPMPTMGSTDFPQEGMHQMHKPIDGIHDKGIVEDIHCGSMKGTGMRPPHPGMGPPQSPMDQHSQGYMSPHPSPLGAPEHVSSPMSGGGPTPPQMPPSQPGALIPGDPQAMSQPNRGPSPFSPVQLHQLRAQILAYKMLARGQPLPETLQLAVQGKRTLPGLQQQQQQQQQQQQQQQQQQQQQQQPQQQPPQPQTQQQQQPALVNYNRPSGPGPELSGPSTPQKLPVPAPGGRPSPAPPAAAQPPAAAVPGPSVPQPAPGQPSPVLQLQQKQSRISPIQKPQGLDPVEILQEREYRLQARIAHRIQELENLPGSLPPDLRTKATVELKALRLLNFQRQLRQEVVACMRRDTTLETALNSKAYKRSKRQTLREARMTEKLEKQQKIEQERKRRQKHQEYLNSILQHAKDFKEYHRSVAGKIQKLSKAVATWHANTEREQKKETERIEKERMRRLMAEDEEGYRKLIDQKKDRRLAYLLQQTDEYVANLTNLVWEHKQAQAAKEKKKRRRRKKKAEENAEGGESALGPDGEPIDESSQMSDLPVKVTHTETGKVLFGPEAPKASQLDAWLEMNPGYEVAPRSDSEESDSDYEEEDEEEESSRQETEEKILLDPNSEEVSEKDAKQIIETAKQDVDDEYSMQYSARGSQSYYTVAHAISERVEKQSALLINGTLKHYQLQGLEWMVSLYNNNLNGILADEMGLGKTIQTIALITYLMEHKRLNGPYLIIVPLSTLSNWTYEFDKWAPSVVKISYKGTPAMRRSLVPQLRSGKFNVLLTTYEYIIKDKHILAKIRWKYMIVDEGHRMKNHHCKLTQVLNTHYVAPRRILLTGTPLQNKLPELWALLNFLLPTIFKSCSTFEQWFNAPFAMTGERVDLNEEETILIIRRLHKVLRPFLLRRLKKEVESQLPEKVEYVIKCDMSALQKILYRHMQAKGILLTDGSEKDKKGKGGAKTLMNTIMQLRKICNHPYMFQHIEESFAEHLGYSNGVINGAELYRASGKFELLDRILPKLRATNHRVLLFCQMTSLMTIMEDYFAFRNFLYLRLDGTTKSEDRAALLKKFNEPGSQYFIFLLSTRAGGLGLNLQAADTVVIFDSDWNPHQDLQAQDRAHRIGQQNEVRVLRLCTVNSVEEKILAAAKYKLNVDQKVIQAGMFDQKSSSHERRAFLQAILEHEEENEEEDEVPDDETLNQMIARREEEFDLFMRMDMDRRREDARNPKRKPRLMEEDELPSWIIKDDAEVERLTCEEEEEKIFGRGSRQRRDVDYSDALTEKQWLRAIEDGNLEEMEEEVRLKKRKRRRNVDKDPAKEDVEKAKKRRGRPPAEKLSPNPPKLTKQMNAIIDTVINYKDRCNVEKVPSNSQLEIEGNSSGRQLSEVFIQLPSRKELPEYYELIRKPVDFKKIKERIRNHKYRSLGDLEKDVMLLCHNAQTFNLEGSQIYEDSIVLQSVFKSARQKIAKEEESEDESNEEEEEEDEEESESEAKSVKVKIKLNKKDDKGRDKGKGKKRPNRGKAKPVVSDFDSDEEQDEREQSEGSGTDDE

| SMILES | DC50 (HiBit-BRM fusion protein) | BRM HiBit Degradation Maximum measured (HiBit-BRM fusion protein) | DC50 [1] | Dmax [1] |
| --- | --- | --- | --- | --- |
| CS(=O)(=O)n1ccc(C(=O)N[C@@H](COCc2ccc(CNC(=O)CCCCCCCCCCNc3cccc4c3C(=O)N(C3CCC(=O)NC3=O)C4=O)cc2)C(=O)Nc2nc(-c3ccccc3)cs2)c1 (stereo partly drawn) [Compound 180, 11-[[2-(2,6-dioxopiperidin-3-yl)-1,3-dioxoisoindol-4-yl]amino]-N-[(4-[[(2S)-2-[(1-methanesulfonylpyrrol-3-yl)formamido]-2-[(4-phenyl-1,3-thiazol-2-yl)carbamoyl]ethoxy]methyl]phenyl)methyl]undecanamide] | 0.1 to 1 µM | B (‘B’ = Maximum degradation ≥50% and ≤75%) | 0.1 to 1 µM | 50 to 75% |
| CS(=O)(=O)n1ccc(C(=O)N[C@@H](COCc2ccc(CNC(=O)CCOCCOCCNc3cccc4c3C(=O)N(C3CCC(=O)NC3=O)C4=O)cc2)C(=O)Nc2nc(-c3ccccc3)cs2)c1 (some centres unmarked) [Compound 181] | 0.1 to 1 µM | B (‘B’ = Maximum degradation ≥50% and ≤75%) | 0.1 to 1 µM | 50 to 75% |
| CS(=O)(=O)n1ccc(C(=O)N[C@@H](COCc2ccc(CNC(=O)CCOCCOCCOc3cccc4c3C(=O)N(C3CCC(=O)NC3=O)C4=O)cc2)C(=O)Nc2nc(-c3ccccc3)cs2)c1 (stereo partly drawn) [Compound 182, 3-[2-(2-[[2-(2,6-dioxopiperidin-3-yl)-1,3-dioxoisoindol-4-yl]oxy]ethoxy)ethoxy]-N-[(4-[[(2S)-2-[(1-methanesulfonylpyrrol-3-yl)formamido]-2-[(4-phenyl-1,3-thiazol-2-yl)carbamoyl]ethoxy]methyl]phenyl)methyl]propanamide] | > 10 µM | C (‘C’ = Maximum degradation <50%) | > 10 µM | < 50% |
| CS(=O)(=O)n1ccc(C(=O)N[C@@H](CCOCCCC(=O)N2CCN(CC3CN(c4ccc5c(c4)C(=O)N(C4CCC(=O)NC4=O)C5=O)C3)CC2)C(=O)Nc2nc(-c3ccccc3)cs2)c1 (stereo partly drawn) [Compound 183, (2S)-4-[4-[4-([1-[2-(2,6-dioxopiperidin-3-yl)-1,3-dioxoisoindol-5-yl]azetidin-3-yl]methyl)piperazin-1-yl]-4-oxobutoxy]-2-[(1-methanesulfonylpyrrol-3-yl)formamido]-N-(4-phenyl-1,3-thiazol-2-yl)butanamide; formic acid] | > 10 µM | C (‘C’ = Maximum degradation <50%) | > 10 µM | < 50% |
| CS(=O)(=O)n1ccc(C(=O)N[C@@H](COCCCC(=O)NCCNc2ccc3c(c2)C(=O)N(C2CCC(=O)NC2=O)C3=O)C(=O)Nc2nc(-c3ccccc3)cs2)c1 (stereo partly drawn) [Compound 185, N-((2S)-3-(4-((2-((2-(2,6-dioxopiperidin-3-yl)-1,3-dioxoisoindolin-5-yl)amino)ethyl)amino)-4-oxobutoxy)-1-oxo-1-((4-phenylthiazol-2-yl)amino)propan-2-yl)-1-(methylsulfonyl)-1H-pyrrole-3-carboxamide] | > 10 µM | C (‘C’ = Maximum degradation <50%) | > 10 µM | < 50% |
| Cc1ncsc1-c1ccc(CNC(=O)[C@@H]2C[C@@H](O)CN2C(=O)[C@@H](NC(=O)COCCOCCNC(=O)c2ccc(COC[C@H](NC(=O)c3ccn(S(C)(=O)=O)c3)C(=O)Nc3nc(-c4ccccc4)cs3)cc2)C(C)(C)C)cc1 [Compound 188, (2S,4R)-4-hydroxy-1-[(2S)-2-[2-(2-[2-[(4-[[(2S)-2-[(1-methanesulfonylpyrrol-3-yl)formamido]-2-[(4-phenyl-1,3-thiazol-2-yl)carbamoyl]ethoxy]methyl]phenyl)formamido]ethoxy]ethoxy)acetamido]-3,3-dimethylbutanoyl]-N-[[4-(4-methyl-1,3-thiazol-5-yl)phenyl]methyl]pyrrolidine-2-carboxamide] | > 10 µM | C (‘C’ = Maximum degradation <50%) | 1 to 10 µM | 50 to 75% |
| Cc1ncsc1-c1ccc(CNC(=O)[C@@H]2C[C@@H](O)CN2C(=O)[C@@H](NC(=O)COCCOCCOCCNC(=O)c2ccc(COC[C@H](NC(=O)c3ccn(S(C)(=O)=O)c3)C(=O)Nc3nc(-c4ccccc4)cs3)cc2)C(C)(C)C)cc1 [Compound 189, (2S,4R)-4-hydroxy-1-[(2S)-2-[2-[2-(2-[2-[(4-[[(2S)-2-[(1-methanesulfonylpyrrol-3-yl)formamido]-2-[(4-phenyl-1,3-thiazol-2-yl)carbamoyl]ethoxy]methyl]phenyl)formamido]ethoxy]ethoxy)ethoxy]acetamido]-3,3-dimethylbutanoyl]-N-[[4-(4-methyl-1,3-thiazol-5-yl)phenyl]methyl]pyrrolidine-2-carboxamide] | > 10 µM | C (‘C’ = Maximum degradation <50%) | > 10 µM | < 50% |
| CS(=O)(=O)n1ccc(C(=O)N[C@@H](COCc2ccc(C(=O)NCCS(=O)(=O)CCNc3cccc4c3C(=O)N(C3CCC(=O)NC3=O)C4=O)cc2)C(=O)Nc2nc(-c3ccccc3)cs2)c1 (stereo partly drawn) [Compound 190, N-[2-(2-[[2-(2,6-dioxopiperidin-3-yl)-1,3-dioxoisoindol-4-yl]amino]ethanesulfonyl)ethyl]-4-[[(2S)-2-[(1-methanesulfonylpyrrol-3-yl)formamido]-2-[(4-phenyl-1,3-thiazol-2-yl)carbamoyl]ethoxy]methyl]benzamide] | > 10 µM | C (‘C’ = Maximum degradation <50%) | > 10 µM | < 50% |

Second part, the compound after the results:

| DC50 (HiBit-BRM fusion protein) | BRM HiBit Degradation Maximum measured (HiBit-BRM fusion protein) | DC50 [1] | Dmax [1] | SMILES |
| --- | --- | --- | --- | --- |
| > 10 µM | C (‘C’ = Maximum degradation <50%) | 0.1 to 1 µM | 50 to 75% | Cc1ncsc1-c1ccc(CNC(=O)[C@@H]2C[C@@H](O)CN2C(=O)[C@@H](NC(=O)CCCCCCCCC(=O)NCc2ccc(COC[C@H](NC(=O)c3ccn(S(C)(=O)=O)c3)C(=O)Nc3nc(-c4ccccc4)cs3)cc2)C(C)(C)C)cc1 [Compound 177, N-[(2S)-1-[(2S,4R)-4-hydroxy-2-([[4-(4-methyl-1,3-thiazol-5-yl)phenyl]methyl]carbamoyl)pyrrolidin-1-yl]-3,3-dimethyl-1-oxobutan-2-yl]-N′-[(4-[[(2S)-2-[(1-methanesulfonylpyrrol-3-yl)formamido]-2-[(4-phenyl-1,3-thiazol-2-yl)carbamoyl]ethoxy]methyl]phenyl)methyl]decanediamide] |
| > 10 µM | C (‘C’ = Maximum degradation <50%) | > 10 µM | < 50% | CS(=O)(=O)n1ccc(C(=O)N[C@@H](COCc2ccc(CNC(=O)CCCOc3cccc4c3C(=O)N(C3CCC(=O)NC3=O)C4=O)cc2)C(=O)Nc2nc(-c3ccccc3)cs2)c1 (stereo partly drawn) [Compound 178, 4-[[2-(2,6-dioxopiperidin-3-yl)-1,3-dioxoisoindol-4-yl]oxy]-N-[(4-[[(2S)-2-[(1-methanesulfonylpyrrol-3-yl)formamido]-2-[(4-phenyl-1,3-thiazol-2-yl)carbamoyl]ethoxy]methyl]phenyl)methyl]butanamide] |
| > 10 µM | C (‘C’ = Maximum degradation <50%) | > 10 µM | < 50% | CS(=O)(=O)n1ccc(C(=O)N[C@@H](COCc2ccc(CNC(=O)CCCCCCOc3cccc4c3C(=O)N(C3CCC(=O)NC3=O)C4=O)cc2)C(=O)Nc2nc(-c3ccccc3)cs2)c1 (stereo partly drawn) [Compound 179, 7-[[2-(2,6-dioxopiperidin-3-yl)-1,3-dioxoisoindol-4-yl]oxy]-N-[(4-[[(2S)-2-[(1-methanesulfonylpyrrol-3-yl)formamido]-2-[(4-phenyl-1,3-thiazol-2-yl)carbamoyl]ethoxy]methyl]phenyl)methyl]heptanamide] |
| > 10 µM | C (‘C’ = Maximum degradation <50%) | > 10 µM | < 50% | COC(=O)N1CCCC(c2csc(NC(=O)[C@H](CCCCNC(=O)CCCCCCCCCCNc3cccc4c3C(=O)N(C3CCC(=O)NC3=O)C4=O)NC(=O)c3ccn(C(C)(C)C)c3)n2)C1 (stereo partly drawn) [Compound 184, methyl 3-[2-[(2S)-2-[(1-tert-butylpyrrol-3-yl)formamido]-6-(11-[[2-(2,6-dioxopiperidin-3-yl)-1,3-dioxoisoindol-4-yl]amino]undecanamido)hexanamido]-1,3-thiazol-4-yl]piperidine-1-carboxylate] |
| > 10 µM | C (‘C’ = Maximum degradation <50%) | > 10 µM | < 50% | CS(=O)(=O)n1ccc(C(=O)N[C@@H](COCCCC(=O)NCCCCCCCCNc2cccc3c2C(=O)N(C2CCC(=O)NC2=O)C3=O)C(=O)Nc2nc(-c3ccccc3)cs2)c1 (stereo partly drawn) [Compound 186, N-(8-[[2-(2,6-dioxopiperidin-3-yl)-1,3-dioxoisoindol-4-yl]amino]octyl)-4-[(2S)-2-[(1-methanesulfonylpyrrol-3-yl)formamido]-2-[(4-phenyl-1,3-thiazol-2-yl)carbamoyl]ethoxy]butanamide] |
| > 10 µM | C (‘C’ = Maximum degradation <50%) | > 10 µM | < 50% | CS(=O)(=O)n1ccc(C(=O)N[C@@H](COCCCC(=O)NCCCCCNc2ccc3c(c2)C(=O)N(C2CCC(=O)NC2=O)C3=O)C(=O)Nc2nc(-c3ccccc3)cs2)c1 (stereo partly drawn) [Compound 187, N-(5-[[2-(2,6-dioxopiperidin-3-yl)-1,3-dioxoisoindol-5-yl]amino]pentyl)-4-[(2S)-2-[(1-methanesulfonylpyrrol-3-yl)formamido]-2-[(4-phenyl-1,3-thiazol-2-yl)carbamoyl]ethoxy]butanamide] |
